Literature values as cited in publication PMC9516332 (Frontiers in Oncology, 2022).

Tests used:
[1] = target: T1, panel of 255 wild-type kinases (Homo sapiens, UniProt P42680); details: kinase TEC; 1 µmol/L single concentration; ref DOI: 10.1371/journal.pone.0092146; cited from earlier work
T1 sequence (P42680 1-631): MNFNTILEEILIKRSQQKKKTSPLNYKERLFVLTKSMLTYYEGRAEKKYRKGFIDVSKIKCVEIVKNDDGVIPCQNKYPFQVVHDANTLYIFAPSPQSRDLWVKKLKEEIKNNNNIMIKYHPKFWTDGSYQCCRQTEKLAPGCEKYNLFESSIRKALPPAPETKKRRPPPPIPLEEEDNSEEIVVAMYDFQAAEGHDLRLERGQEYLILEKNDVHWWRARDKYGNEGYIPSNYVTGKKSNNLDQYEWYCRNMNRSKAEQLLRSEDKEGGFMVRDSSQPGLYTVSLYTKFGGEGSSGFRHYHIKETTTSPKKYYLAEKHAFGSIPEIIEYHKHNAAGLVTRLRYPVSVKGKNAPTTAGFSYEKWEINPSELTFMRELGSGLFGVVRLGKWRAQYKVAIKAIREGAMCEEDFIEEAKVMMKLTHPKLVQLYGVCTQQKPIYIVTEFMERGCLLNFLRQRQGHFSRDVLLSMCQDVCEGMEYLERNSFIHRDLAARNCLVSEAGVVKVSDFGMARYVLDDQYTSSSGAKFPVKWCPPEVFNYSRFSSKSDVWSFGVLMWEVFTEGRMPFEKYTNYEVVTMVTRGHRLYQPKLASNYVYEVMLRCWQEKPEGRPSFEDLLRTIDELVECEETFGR

[2] = target: panel of 255 wild-type kinases (Homo sapiens, UniProt P29317); details: kinase EPHA2; 1 µmol/L single concentration; ref DOI: 10.1371/journal.pone.0092146; cited from earlier work
[3] = target: panel of 255 wild-type kinases (Homo sapiens, UniProt Q16620); details: kinase TRKB; 1 µmol/L single concentration; ref DOI: 10.1371/journal.pone.0092146; cited from earlier work
[4] = target: panel of 255 wild-type kinases (Homo sapiens, UniProt O96017); details: CHK2 kinase assay; 1 µmol/L single concentration; ref DOI: 10.1371/journal.pone.0092146; cited from earlier work
[5] = target: T2, panel of 255 wild-type kinases (Homo sapiens, UniProt P21709); details: kinase EPHA1; 1 µmol/L single concentration; ref DOI: 10.1371/journal.pone.0092146; cited from earlier work
T2 sequence (P21709 26-976): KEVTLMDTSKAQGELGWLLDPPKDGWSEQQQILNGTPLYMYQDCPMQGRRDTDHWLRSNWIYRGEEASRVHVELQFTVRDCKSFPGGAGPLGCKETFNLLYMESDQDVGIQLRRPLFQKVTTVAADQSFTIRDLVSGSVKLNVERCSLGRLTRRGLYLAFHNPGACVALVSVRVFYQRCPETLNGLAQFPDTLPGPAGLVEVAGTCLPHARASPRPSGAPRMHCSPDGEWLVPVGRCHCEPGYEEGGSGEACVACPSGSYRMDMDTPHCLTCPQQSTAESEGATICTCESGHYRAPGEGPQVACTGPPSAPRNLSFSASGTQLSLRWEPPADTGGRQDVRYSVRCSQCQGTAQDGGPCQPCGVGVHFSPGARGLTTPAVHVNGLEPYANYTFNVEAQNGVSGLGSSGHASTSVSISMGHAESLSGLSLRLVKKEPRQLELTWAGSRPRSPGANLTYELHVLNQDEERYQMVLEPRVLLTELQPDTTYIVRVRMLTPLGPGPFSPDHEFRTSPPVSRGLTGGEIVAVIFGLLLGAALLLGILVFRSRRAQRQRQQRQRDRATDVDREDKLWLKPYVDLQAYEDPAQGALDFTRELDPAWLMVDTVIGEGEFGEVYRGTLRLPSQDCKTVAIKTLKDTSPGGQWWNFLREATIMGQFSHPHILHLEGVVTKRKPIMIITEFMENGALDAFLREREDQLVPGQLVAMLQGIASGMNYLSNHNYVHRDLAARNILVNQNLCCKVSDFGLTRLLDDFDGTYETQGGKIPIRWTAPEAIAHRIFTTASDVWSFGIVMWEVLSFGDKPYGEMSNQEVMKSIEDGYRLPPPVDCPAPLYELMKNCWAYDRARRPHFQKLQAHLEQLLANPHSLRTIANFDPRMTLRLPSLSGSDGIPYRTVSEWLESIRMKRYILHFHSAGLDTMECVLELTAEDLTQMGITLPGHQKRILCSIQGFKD

[6] = target: panel of 255 wild-type kinases (Homo sapiens, UniProt P24723); details: kinase PKCη; 1 µmol/L single concentration; ref DOI: 10.1371/journal.pone.0092146; cited from earlier work
[7] = target: T3, panel of 255 wild-type kinases (Homo sapiens, UniProt Q9NRA0); details: kinase SPHK2; 1 µmol/L single concentration; ref DOI: 10.1371/journal.pone.0092146; cited from earlier work
T3 sequence (Q9NRA0 1-654): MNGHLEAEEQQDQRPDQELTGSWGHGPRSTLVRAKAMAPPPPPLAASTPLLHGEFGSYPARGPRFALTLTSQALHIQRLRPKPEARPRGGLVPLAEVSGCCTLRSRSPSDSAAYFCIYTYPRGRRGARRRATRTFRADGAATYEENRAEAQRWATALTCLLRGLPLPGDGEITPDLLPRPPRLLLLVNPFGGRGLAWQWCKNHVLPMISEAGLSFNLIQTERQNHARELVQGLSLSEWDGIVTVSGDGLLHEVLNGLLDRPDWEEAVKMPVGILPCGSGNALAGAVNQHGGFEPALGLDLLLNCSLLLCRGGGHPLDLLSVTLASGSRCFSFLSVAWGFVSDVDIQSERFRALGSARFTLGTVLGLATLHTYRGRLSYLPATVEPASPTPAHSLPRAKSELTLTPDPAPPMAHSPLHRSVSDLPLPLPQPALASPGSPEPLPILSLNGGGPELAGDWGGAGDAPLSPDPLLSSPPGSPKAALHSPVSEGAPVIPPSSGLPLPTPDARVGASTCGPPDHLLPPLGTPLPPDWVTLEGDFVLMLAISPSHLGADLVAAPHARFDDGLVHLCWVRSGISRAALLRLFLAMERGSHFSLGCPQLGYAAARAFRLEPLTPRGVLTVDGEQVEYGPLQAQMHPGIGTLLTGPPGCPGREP

SMILES	%-inhibition at 1 µmol/L, TEC [1] [%]	%-inhibition at 1 µmol/L, EPHA2 [2] [%]	%-inhibition at 1 µmol/L, TRKB [3] [%]	%-inhibition CHK2 [4] [%]	%-inhibition at 1 µmol/L, EPHA1 [5] [%]	%-inhibition at 1 µmol/L, PKCη [6] [%]	%-inhibition at 1 µmol/L, SPHK2 [7] [%]
CC(=O)Nc1cccc(-n2c(=O)n(C3CC3)c(=O)c3c(Nc4ccc(I)cc4F)n(C)c(=O)c(C)c32)c1 [trametinib]	-7.53	-8.53	-3.4	-5	-1.61	-8	-14
CCCS(=O)(=O)Nc1ccc(F)c(C(=O)c2c[nH]c3ncc(-c4ccc(Cl)cc4)cc23)c1F [vemurafenib]	-0.191	0.715	11	6.32	-9	-22	8
